# Laboratory results as given in patent publication US20170305943A1, “COMPOUNDS FOR THE TREATMENT OF BACTERIAL INFECTIONS” (priority 2014, published 2017).
# System: Clostridium difficile (Isolate ID ATCC 9689)
# Test: Bacterial Assay: Determination of Antibacterial Activity (MIC, broth microdilution or agar dilution)
# Assay type: cell-based
# Settings: Clostridioides difficile, ATCC9689, 48 h, read-out: C. difficile MIC Activity Range
# Method: Bacterial Assay: Determination of Antibacterial Activity Compounds of the invention were tested for antimicrobial activity by susceptibility testing in liquid or on solid media. Minimum inhibitory concentrations (MICs) for compounds against each strain were determined by the broth microdilution or agar dilution method according to the guidelines of the Clinical Laboratories and Standards Institute, formerly the National Committee for Clinical Laboratory Standards (Clinical Laboratories and Standards Institute. Methods for Dilution Antimicrobial Susceptibility Tests for Bacteria That Grow Anaerobically; Approved Standard-Seventh Edition. Document M11-A7, CLSI, Wayne, Pa., 2007, Clinical Laboratories and Standards Institute). Briefly MICs were determined by visible inspection after 48 hours of growth in the presence of compounds, cultures were grown at 37° C. in anaerobic gas packs using reinforced clostridial medium supplemented with 0.1% defribrinated horse blood. The bacterial strains tested include C. difficile (Clostridium difficile (Isolate ID ATCC 9689)) (Table 2) and two drug resistant clinical isolates (Clostridium difficile (Isolate ID BI-9) and Clostridium difficile (Isolate ID 027-01) (Table 3).
# MICs were determined to be within the activity ranges “A” activity≦1.01 μg/mL; “B” activity>1.0 μg/mL-4.0 μg/mL; “C” activity>4.0 μg/mL-16 μg/mL
row,Compound,MIC [µg/mL]
1,"Cn1ccc(CNC(=O)OCC(Oc2ccc(F)c(C(N)=O)c2F)c2nc(-c3ccc(C(F)(F)F)cc3)c(Br)o2)n1 (stereo not shown) [Compound 72, 2-{5-bromo-4-[4-(trifluoromethyl)phenyl]-1,3-oxazol-2-yl}-2-(3-carbamoyl-2,4-difluorophenoxy)ethyl [(1-methyl-1H-pyrazol-3-yl)methyl]carbamate]",< 1.01
2,"CNC(=O)OCC(Oc1ccc(F)c(C(N)=O)c1F)c1nc(-c2ccc(C(F)(F)F)cc2)c(Br)o1 (stereo not shown) [Compound 50, 2-{5-bromo-4-[4-(trifluoromethyl)phenyl]-1,3-oxazol-2-yl}-2-(3-carbamoyl-2,4-difluorophenoxy)ethyl methylcarbamate]",< 1.01
3,"NC(=O)c1c(F)ccc(OCCCc2nc3cc(Cl)ccc3s2)c1F [Compound 109, 3-[3-(5-chloro-1,3-benzothiazol-2-yl)propoxy]-2,6-difluorobenzamide]",1 to 4
4,"CCCCCC/C=C/COc1ccc(F)c(C(N)=O)c1F [Compound 3, 2,6-difluoro-3-[(2E)-non-2-en-1-yloxy]benzamide]",< 1.01
5,"NC(=O)c1c(F)ccc(OC(CO)c2nc(-c3ccc(F)cc3F)c(Br)o2)c1F (stereo not shown) [Compound 99, 3-{1-[5-bromo-4-(2,4-difluorophenyl)-1,3-oxazol-2-yl]-2-hydroxyethoxy}-2,6-difluorobenzamide]",< 1.01
6,"NC(=O)c1c(F)ccc(OCc2nc(CCc3cccc(Cl)c3)cs2)c1F [Compound 199, 3-({4-[2-(3-chlorophenyl)ethyl]-1,3-thiazol-2-yl}methoxy)-2,6-difluorobenzamide]",< 1.01
7,"CN(CCCCOc1ccc(C(F)(F)F)cn1)c1ccc(F)c(C(N)=O)c1F [Compound 180, 2,6-difluoro-3-[methyl(4-{[5-(trifluoromethyl)pyridin-2-yl]oxy}butyl)amino]benzamide]",1 to 4
8,"NC(=O)c1c(F)ccc(OCCOCCOc2ccc(C(F)(F)F)cc2)c1F [Compound 146, 2,6-difluoro-3-(2-{2-[4-(trifluoromethyl)phenoxy]ethoxy}ethoxy) benzamide]",< 1.01
9,"NC(=O)c1c(F)ccc(OCCCCOc2ccc(F)c(F)c2)c1F [Compound 170, 3-[4-(3,4-difluorophenoxy)butoxy]-2,6-difluorobenzamide]",1 to 4
10,"C=CCc1ccc2sc(COc3ccc(F)c(C(N)=O)c3F)nc2c1 [Compound 14, 2,6-difluoro-3-{[5-(prop-2-en-1-yl)-1,3-benzothiazol-2-yl]methoxy}benzamide]",4 to 16
11,"NC(=O)c1c(F)ccc(OCCCCOc2ccc(Br)cc2)c1F [Compound 176, 3-[4-(4-bromophenoxy)butoxy]-2,6-difluorobenzamide]",< 1.01
12,"Cc1ccc(CNC(=O)OCC(Oc2ccc(F)c(C(N)=O)c2F)c2nc(-c3ccc(C(F)(F)F)cc3)c(Br)o2)cn1 (stereo not shown) [Compound 89, 2-{5-bromo-4-[4-(trifluoromethyl)phenyl]-1,3-oxazol-2-yl}-2-(3-carbamoyl-2,4-difluorophenoxy)ethyl [(6-methylpyridin-3-yl)methyl]carbamate]",< 1.01
13,"NC(=O)c1c(F)ccc(OCCCCNc2ccc(C(F)(F)F)cc2)c1F [Compound 147, 2,6-difluoro-3-(4-{[4-(trifluoromethyl)phenyl]amino}butoxy) benzamide]",1 to 4
14,"NC(=O)c1c(F)ccc(OCc2nc(-c3ccc(Cl)cc3)c(-c3cccc(O)c3)o2)c1F [Compound 210, 3-{[4-(4-chlorophenyl)-5-(3-hydroxyphenyl)-1,3-oxazol-2-yl]methoxy}-2,6-difluorobenzamide]",4 to 16
15,"NC(=O)c1c(F)ccc(SCCCCOc2ccc(OC(F)(F)F)cc2)c1F [Compound 157, 2,6-difluoro-3-({4-[4-(trifluoromethoxy)phenoxy]butyl}thio)benzamide]",1 to 4
16,"NC(=O)c1c(F)ccc(OCc2cnn(-c3ccc(Cl)cc3)n2)c1F [Compound 202, 3-{[2-(4-chlorophenyl)-2H-1,2,3-triazol-4-yl]methoxy}-2,6-difluorobenzamide]",1 to 4
